Read-outs that look alike come from different tables or passages of the source.
Assay: Human liver microsome (HLM) metabolic stability assay
Format: in vitro ADME
Conditions: pooled human liver microsomes, HLM 0.5 mg/mL, test compound 0.5 μM, NADPH, 37° C.
Description: Microsomal Assay: Human liver microsomes (20 mg/mL) were obtained from Xenotech, LLC (Lenexa, Kans.). β-nicotinamide adenine dinucleotide phosphate, reduced form (NADPH), magnesium chloride (MgCl2), and dimethyl sulfoxide (DMSO) were purchased from Sigma-Aldrich. The incubation mixtures were prepared according to Table 2:
Determination of Metabolic Stability: Two aliquots of this reaction mixture were used for a compound of this invention. The aliquots were incubated in a shaking water bath at 37° C. for 3 minutes. The test compound was then added into each aliquot at a final concentration of 0.5 μM. The reaction was initiated by the addition of cofactor (NADPH) into one aliquot (the other aliquot lacking NADPH served as the negative control). Both aliquots were then incubated in a shaking water bath at 37° C. Fifty microliters (50 μL) of the incubation mixtures were withdrawn in triplicate from each aliquot at 0, 5, 10, 20, and 30 minutes and combined with 50 μL of ice-cold acetonitrile to terminate the reaction. The same procedure was followed for dasatinib and for the positive control, 7-ethoxycoumarin. Testing was done in triplicate.
Data analysis: The in vitro half-lives (t1/2s) for test compounds were calculated from the slopes of the linear regression of % parent remaining (ln) vs incubation time relationship. in vitro t1/2=0.693/k
k=−[slope of linear regression of % parent remaining(ln) vs incubation time]
Data analysis was performed using Microsoft Excel Software.
The metabolic stability of compounds of Formula I was tested using pooled liver microsomal incubations. Full scan LC-MS analysis was then performed to detect major metabolites. Samples of the test compounds, exposed to pooled human liver microsomes, were analyzed using HPLC-MS (or MS/MS) detection. For determining metabolic stability, multiple reaction monitoring (MRM) was used to measure the disappearance of the test compounds. For metabolite detection, Q1 full scans were used as survey scans to detect the major metabolites.

[1] = 0-30 minutes, Experiment 1, read-out: t1/2 (min) Experiment 1
[2] = average of Experiments 1 and 2, read-out: t1/2 (min) Average
[3] = 0-30 minutes, Experiment 2, read-out: t1/2 (min) Experiment 2

Row | Compound | half-life at 0.5 μM [1] | half-life at 0.5 μM [2] | half-life at 0.5 μM [3]
1 | [2H]C([2H])(O)CN1CCN(c2cc(Nc3ncc(C(=O)Nc4c(Cl)cccc4C([2H])([2H])[2H])s3)nc(C)n2)CC1 [Compound 101, N-(2-Chloro-6-(methyl-d3)phenyl)-2-(6-(4-(2,2-d2-2-hydroxyethyl)piperazin-1-yl)-2-methylpyrimidin-4-ylamino)thiazole-5-carboxamide] | 17.7 min | 17.9 min | 
2 | [2H]C([2H])([2H])c1cccc(Cl)c1NC(=O)c1cnc(Nc2cc(N3CCN(C([2H])([2H])C([2H])([2H])O)CC3)nc(C)n2)s1 [Compound 103, N-(2-Chloro-6-(methyl-d3)phenyl)-2-(6-(4-(1,1,2,2-d4-2-hydroxyethyl)piperazin-1-yl)-2-methylpyrimidin-4-ylamino)thiazole-5-carboxamide] | 19.4 min | 18.3 min | 17.2 min
3 | [2H]C([2H])([2H])c1cccc(Cl)c1NC(=O)c1cnc(Nc2cc(N3C([2H])([2H])C([2H])([2H])N(C([2H])([2H])C([2H])([2H])O)C([2H])([2H])C3([2H])[2H])nc(C)n2)s1 [Compound 115, N-(2-Chloro-6-(methyl-d3)phenyl)-2-(6-(4-(1,1,2,2-d4-2-hydroxyethyl)-(piperazin-d8)-1-yl)-2-methylpyrimidin-4-ylamino)thiazole-5-carboxamide] | 17.3 min | 17.8 min | 18.2 min
4 | [2H]C1([2H])N(CCO)C([2H])([2H])C([2H])([2H])N(c2cc(Nc3ncc(C(=O)Nc4c(C)cccc4Cl)s3)nc(C)n2)C1([2H])[2H] [Compound 117, N-(2-Chloro-6-methylphenyl)-2-(6-(4-(2-hydroxyethyl)-(piperazin-d8)-1-yl)-2-methylpyrimidin-4-ylamino)thiazole-5-carboxamide] | 19.6 min | 19.1 min | 18.5 min
5 | Cc1nc(Nc2ncc(C(=O)Nc3c(C)cccc3Cl)s2)cc(N2CCN(CCO)CC2)n1 [Dasatinib, 2-{6-[4-(2-Hydroxy-ethyl)-piperazin-1-yl]-2-methyl-pyrimidin-4-ylamino}-thiazole-5-carboxylic acid (2-chloro-6-methyl-phenyl)-amide, reference compound] | 16 min | 15.3 min | 14.6 min
